{"source": "patent US10849875B2", "about": "“Cancer specific lipid targeted peptidomimetics” (University of Houston System, priority 2015, dated 2020)", "key": {"[1]": {"tested_on": "tumor vascular endothelium of subcutaneous HCC4017 tumors", "assay": "In vivo vascular disrupting effect", "set-up": "species or system mice", "settings": "20 μg i.v., 24 hours", "procedure": "The in vivo vascular disrupting effects of PPS1-D2 were explored. Mice bearing HCC4017 tumors growing subcutaneously were injected i.v. with 20 μg of PPS1-D2. Twenty four hours later, the tumors were removed, cryosectioned, and stained for CD31 to detect vascular endothelium. […] This dose can be calculated to give an initial blood concentration that is roughly 10-fold higher than needed for maximal lysis of PS-expressing cell in vitro."}, "[2]": {"assay": "Toxicity of PPS1-D2 to mice", "assay_type": "in vivo"}, "[3]": {"assay": "Propidium iodide test of cell lysis", "assay_type": "cell-based", "settings": "non-permeabilized cells"}, "H460 xenografts": {"tested_on": "H460 xenografts", "assay": "Inhibition of growth of H460 lung cancer xenograft", "assay_type": "in vivo, mice", "procedure": "Whether PPS1D1 would inhibit tumor growth in a murine model was examined. H460 cells were implanted in nude mice. Tumors were allowed grow until it reach […]. These xenografts were then treated with a daily dose of […] in four different groups that consist of PPS1D1 alone, docetaxel alone, PPS1D1 and docetaxel together or with the control peptoid (PC462D1) alone. Docetaxel is a standard chemotherapeutic treatment for non-small cell carcinoma. The activity of PPSD1 and its ability to work as a combination treatment were examined. […] This effect was extremely potent and the tumor growth was completely controlled. […] It has been reported that chemotherapy and radiation therapy increase the PS flipping in tumor microenvironment. Therefore, Docetaxel might have helped improve binding of PPS1D1 on cancer cell surface that is now displaying an increased amount of PS to be targeted. After the standard chemotherapy and radiation therapy, the target PS is highly abundant for the drug to recognize and attack.\nThe effect of PPS1D1 on the growth of H460 xenografts implanted in NOD/SCID immunodeficient mice was examined. Immunodeficient animals were chosen to facilitate the growth of human tumor xenografts. […] Therapy with a control peptoid (PC462D1, 0.25 mg/mouse, 3×/week ip), PPS1D1 (0.25 mg/mouse, 3×/week ip), docetaxel (0.5 mg/kg, 2×/week, ip) or the combination of PPS1D1+docetaxel was initiated when tumors were ˜100 mm3 in volume. […] Tumor tissue was harvested after 4 weeks of therapy and assessed for cell proliferation and apoptosis by immunohistochemistry. […] It is clear from studies with bavituximab that standard chemotherapy (e.g., taxanes) increases the exposure of PS resulting in elevated binding of the PS targeting agent. A similar mechanism can underlie the enhanced activity of docetaxel and PPS1D1.\nAll animals were housed in a pathogen-free facility with continuous access to food and water. Mice were purchased from the core breeding facility at UT Southwestern. Six to eight-week-old female NOD/SCID mice were injected with 2.5×10^6 H460 cells subcutaneously. Tumor volume was followed by twice weekly measurements with Vernier calipers. Animals were randomized and treatment was initiated with mean tumor volume of each group was 100 mm3. Four different groups used were: (I) control PC462D1, (II) PPS1D1, (III) docetaxel, and (IV) combination of PPS1D1+docetaxel. Mice (n=8/group) were treated with PPS1D1 or PC462D1 in saline by ip injection at a dose of 0.25 mg/mouse, 3 times per week on a M-W-F schedule. Docetaxel from the UT Southwestern Clinical pharmacy was diluted in saline and delivered 2×/week ip at 5 mg/kg. Animals were sacrificed after 4 weeks of therapy. Tumor tissue was snap frozen, sectioned and stained with antibodies specific for phospho-Histone H3 (Millipore, #06-570) and cleaved caspase 3 (Cell Signaling, #9664). Reactivity was developed with appropriate fluorescently conjugated secondary antibodies (Jackson ImmunoResearch) and mounted with Prolong Gold with DAPI (Invitrogen), coverslipped and evaluated by fluorescence microscopy."}, "breast cancer": {"tested_on": "breast cancer", "settings": "cited from earlier work"}, "[4]": {"settings": "calcium-dependent; cited from earlier work"}, "[5]": {"assay": "Annexin V / PPS1 competition on liposomes by flow cytometry", "assay_type": "binding", "settings": "unlabeled Annexin V 50 nM", "procedure": "(§1) Multiple competition assays were conducted to determine whether PPS1 (or PPS1D1) competes with Annexin V, a known PS binding agent. […] Competition between Annexin V and PPS1 for binding to PS in liposomes using flow cytometry was evaluated. […] However, PPS1 directly binds PS. Also, PS-ligand binding may be much more complex than that of a typical protein-ligand binding. Typical protein ligand binding occurs via a defined binding pocket, which facilitates clear competition by other ligands that interact with the same binding pocket. But PS is a lipid in a fluid membrane, which has no defined macromolecular structure further complicating possible binding modes.\nUnlabeled Annexin V vs FITC-PPS1 competition. 0.1 mM liposomes (85 mol % POPC, 15 mol % DOPS) were incubated with incubated with 50 nM Annexin V in Binding Buffer (0.01 M HEPES/NaOH (pH 7.4), 0.14 M NaCl, and 2.5 mM CaCl2) with 3% BSA for lhour. FITC PPS1 was added and the solution was incubated for 1 hour at room temperature. The binding of FITC-PPS1 to liposomes was analyzed by BD Accuri™ C6 flow cytometer (Becton-Dickinson, NJ). All data were analyzed using BDAccuriC6 software.\nUnlabeled PPS1 vs FITC-Annexin V competition. […] The binding of FITC-Annexin V to liposomes was analyzed by BD Accuri™ C6 flow cytometer (Becton-Dickinson, NJ). All data were analyzed using BDAccuriC6 software."}, "[6]": {"assay": "On-bead competition assay", "assay_type": "binding", "settings": "Annexin V at 10, 50 and 100 nM", "procedure": "Experimental procedure 12: On-bead competition assay. PPS1 and PC462 were synthesized on Tentagel beads. Organic solvent was removed and the beads were washed with 3 times with PBS. The beads were then incubated with PBS containing 3% BSA for 1 hour at room temperature. These beads were then incubated with 0.1 mM liposomes (84 mol % POPC, 15 mol % DOPS and 1 mol % NBD) for 2 hours at room temperature. Beads containing liposomes were the washed with binding buffer 3 times. […] Beads were then washed with binding buffer and imaged using fluorescence Microscope (Olympus BX-53)."}, "[7]": {"assay": "Annexin V competition on lipid ELISA", "assay_type": "binding", "settings": "ELISA-like, 100 nM Annexin V", "procedure": "as §1\nLipids (Avanti Polar Lipids) were dissolved in chloroform at 10 μg/ml and coated on to Immulon 1B “U” bottom microtiter plates (ThermoFisher, MA). Chloroform was evaporated at room temp (in the hood) and plates were blocked with 200 μl of 1% BSA for 1 hour. Plates were washed with 3× PBS. Biotinylated PPS1D1 dissolved in blocking buffer was added and incubated for 1 hour at room temp. Plates were washed with 3× PBS and 2× Annexin binding buffer. […] Binding was detected with streptavidin-HRP (1:1000 in blocking buffer) followed by 100 μl OPD (Sigma-Aldrich, MO). The reaction was stopped with 100 μl 0.18M H2SO4 and absorbance was read at 490 nm using the spectrophotometer (Spectramax i3, Molecular Devices, CA)."}, "[8]": {"tested_on": "non-small cell lung cancer (NSCLC)", "settings": "in combination with carboplatin and paclitaxel (11/17); cited from earlier work"}, "[9]": {"settings": "complexes with beta2-glycoprotein 1; cited from earlier work"}, "[10]": {"tested_on": "HCC4017, H460, HCC95, H1693, H1395 lung cancer cell lines", "assay": "Cell staining with Hoechst 33342 and propidium iodide (membrane integrity)", "assay_type": "cell-based, human", "settings": "0.005% Benzalkonium chloride", "procedure": "It was evaluated how PPS1D1 affects viability of these PS expressing cancer cell lines. While there are difficulties of narrowing down the exact mechanism of action of a compound targeting cell membrane lipids, whether PPS1D1 has any effect on cell membrane integrity was evaluated. Cells were treated with standard DNA staining dyes Propidium iodide (PI) and Hoechst 33342. While both bind DNA, only Hoechst is cell permeable. Therefore, when treating live cells only Hoechst will stain the nucleus while PI will stain the nucleus only if the cell membrane integrity is compromised. All the lung cancer cell lines and normal HBEC30KT cells were treated with these dyes in the presence of PPS1D1 (at 1 μM and 20 μM) or a control compound PC462D1 at 20 μM and evaluated fluorescence by microscopy without fixation. […] These observations indicate that 20 μM PPS1D1 is selectively cytotoxic to PS-positive lung cancer cells.\n10,000 cells of HCC4017, H460, HCC95, H1693,H1395 and HBEC30KT were plated on chamber slides (Lab-Tek, Thermo Fisher, MA). On second day, cells were treated with PPS (1 μM and 20 μM), control PC462D1 (20 μM) and 0.005% Benzalkonium chloride (BAC) in RPMI medium with 10% FBS containing 3% BSA (KSFM media with 3% BSA for HBEC30KT). Chamber slides were washed with PBS three times. Cells were then stained with Hoechst 33342 (10 μg/ml) for 30 min in dark. Chamber slides were washed with 3× PBS. Cells were then stained with propidium iodide (1 mg/ml) for 15 mins. Cells were washed with 3× PBS and imaged using Fluorescence Microscope (Olympus BX-53)."}}, "note": "Positions of bridges follow the written chain, without caps; N, C: chain ends. Non-standard residues stand in square brackets, D forms with d. Residues, ends and D or L forms follow the SMILES beside them. Chains are numbered I, II in the order given. Gly(N-piperonyl) = O=C(O)CNCc1ccc2c(c1)OCO2; N(4-MeOBn)Gly = COc1ccc(CNCC(=O)O)cc1; Nrpe = C[C@@H](NCC(=O)O)c1ccccc1; Nlys = NCCCCNCC(=O)O; βAla = NCCC(=O)O"}
{"compound": "COc1ccc(CN(CC(=O)N(CCCCN)CC(=O)N[C@@H](CCCCN)C(=O)N[C@H](CCCCN)C(=O)N[C@@H](CCSC)C(=O)NCCC(=O)NCCCC[C@H](NC(=O)CCNC(=O)[C@H](CCSC)NC(=O)[C@@H](CCCCN)NC(=O)[C@H](CCCCN)NC(=O)CN(CCCCN)C(=O)CN(Cc2ccc(OC)cc2)C(=O)CN(C(=O)CN(Cc2ccc3c(c2)OCO3)C(=O)CN[C@H](C)c2ccccc2)[C@H](C)c2ccccc2)C(N)=O)C(=O)CN(C(=O)CN(Cc2ccc3c(c2)OCO3)C(=O)CN[C@H](C)c2ccccc2)[C@H](C)c2ccccc2)cc1", "note": "[PPS1-D2] (I: H-[Nrpe][Gly(N-piperonyl)][Nrpe][N(4-MeOBn)Gly][Nlys]K[dK]M[βAla]K-NH2 / II: H-[Nrpe][Gly(N-piperonyl)][Nrpe][N(4-MeOBn)Gly][Nlys]K[dK]M[βAla]; amide I:10-II:C; N-terminus assumed)", "values": [{"measurement": "disruption of tumor vascular endothelium (CD31)", "setting": "[1]", "result": "disrupted tumor endothelium"}, {"measurement": "signs of toxicity", "setting": "[2]; mice treated with 50 μg", "result": "no signs of toxicity"}, {"measurement": "MTD", "setting": "[2]; mouse, in vivo", "result": "2 to 4", "unit": "mg/kg"}, {"measurement": "nuclear staining by propidium iodide", "setting": "[3]", "result": "nuclear staining happens only when PPS1-D2 is treated"}]}
{"compound": "CC(=O)O[C@@]12CO[C@@H]1C[C@H](O)[C@@]1(C)C(=O)[C@H](O)C3=C(C)[C@@H](OC(=O)[C@H](O)[C@@H](NC(=O)OC(C)(C)C)c4ccccc4)C[C@@](O)([C@@H](OC(=O)c4ccccc4)[C@H]21)C3(C)C", "note": "[docetaxel, reference compound]", "values": [{"measurement": "tumor growth (tumor volume vs days post therapy initiation)", "setting": "H460 xenografts; H460 in NOD/SCID mice, peptoids 0.25 mg/mouse 3x/week ip, docetaxel 0.5 mg/kg 2x/week ip", "result": "slowed tumor growth"}, {"measurement": "tumor size reduction", "setting": "H460 xenografts; H460 in nude mice, daily dose of 0.5 mg/mL", "result": "equally effective in reducing the size of the tumors"}, {"measurement": "response rate", "setting": "breast cancer; docetaxel alone, separate study", "result": 41, "unit": "%"}]}
{"compound": "Annexin V: 35.8 kDa protein that binds PS in a calcium-dependent manner", "values": [{"measurement": "affinity for PS", "setting": "[4]", "result": "nanomolar affinity"}, {"measurement": "competition with FITC-PPS1 binding to liposomes", "setting": "[5]", "result": "did not compete"}, {"measurement": "removal of liposomes from PPS1 beads", "setting": "[6]", "result": "None of these conditions were able to remove liposomes from beads"}, {"measurement": "competition with PPS1D1 for binding to PS", "setting": "[7]", "result": "did not compete"}]}
{"compound": "Bavituximab: human-mouse chimeric antibody targeting PS via beta2-glycoprotein 1", "values": [{"measurement": "objective response", "setting": "[8]", "result": 65, "unit": "%"}, {"measurement": "Kd", "setting": "[9]", "result": 400, "unit": "pM"}, {"measurement": "objective response", "setting": "breast cancer; combination of bavituximab and docetaxel, phase II (28/46)", "result": 61, "unit": "%"}]}
{"compound": "Benzalkonium chloride [BAC, reference compound]", "values": [{"measurement": "PI staining of cells", "setting": "[10]", "result": "PI-positive nuclei"}]}
